Drawing on ChEMBL document CHEMBL1240326, “ATP non-competitive IGF-1 receptor kinase inhibitors as lead anti-neoplastic and anti-papilloma agents” (Eur J Pharmacol, 2007), this text covers IC50 for three compounds.

Experiment [1] deals with Proto-oncogene tyrosine-protein kinase Src (Homo sapiens, UniProt P12931). Kind of experiment: Inhibition of human GST-fused Src-mediated Poly Glu4Tyr phosphorylation by ELISA. On the technique in general: ELISA stands for enzyme-linked immunosorbent assay.
In a further experiment the test system is Keratinocyte. Kind of experiment: cells. As to conditions: Homo sapiens, 72 h.
The nature of another experiment: cells. As to conditions: Homo sapiens, HF1, 48 h.

Chain of Proto-oncogene tyrosine-protein kinase Src (P12931 2-536 limits assumed): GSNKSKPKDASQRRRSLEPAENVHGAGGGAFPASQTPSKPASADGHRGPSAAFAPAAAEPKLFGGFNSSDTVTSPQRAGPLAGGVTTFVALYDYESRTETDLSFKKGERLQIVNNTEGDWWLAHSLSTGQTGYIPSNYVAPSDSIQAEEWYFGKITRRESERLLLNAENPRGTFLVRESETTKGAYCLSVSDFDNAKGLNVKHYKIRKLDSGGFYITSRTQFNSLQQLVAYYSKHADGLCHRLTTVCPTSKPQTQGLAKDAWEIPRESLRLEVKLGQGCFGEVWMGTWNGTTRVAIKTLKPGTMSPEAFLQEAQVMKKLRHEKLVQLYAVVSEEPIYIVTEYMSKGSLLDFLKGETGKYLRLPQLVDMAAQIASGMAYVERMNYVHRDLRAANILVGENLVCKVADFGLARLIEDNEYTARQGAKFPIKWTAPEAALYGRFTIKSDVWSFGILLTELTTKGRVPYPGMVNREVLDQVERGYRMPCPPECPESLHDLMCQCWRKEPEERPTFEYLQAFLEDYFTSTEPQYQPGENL
Description for Keratinocyte: Growth inhibition of human primary keratinocytes after 72 hrs by micro culture methylene blue assay

As to `Oc1ccc(CN(Cc2ccc(O)c(O)c2)c2ccc3c(c2)OCO3)cc1O`, the IC50 (in general, the point on the concentration scale where inhibition reaches its midpoint) was determined as 0.83 µM in experiment [1], 18 µM with Keratinocyte and 106 µM in the experiment “cells”.

Take `Oc1ccc(CNc2ccc3c(c2)OCO3)cc1O`: the IC50 in experiment [1] came to 1.86 µM; in the experiment with Keratinocyte, 73 µM; in “cells”, 170 µM.

Turning to `N#C/C(=C\c1ccc(O)c(O)c1)C(=O)c1ccc(O)c(O)c1`, half-maximal inhibition in “cells” (IC50) required 390 µM.
